Non-standard residues stand in square brackets, D forms with d. Residues, ends and D or L forms follow the SMILES beside them. *: point of attachment. GlcA(β-D,1-O-dodecyl) = CCCCCCCCCCCCO[C@@H]1O[C@H](C(=O)*)[C@@H](O)[C@H](O)[C@H]1O; GlcA(β1-O-octyl) = CCCCCCCCO[C@@H]1O[C@H](C(=O)*)[C@@H](O)[C@H](O)[C@H]1O; βGlcA(1-OMe) = CO[C@@H]1O[C@H](C(=O)*)[C@@H](O)[C@H](O)[C@H]1O; Phe(2,4,6-Me3) = Cc1cc(C)c(C[C@H](N)C(=O)O)c(C)c1; Dmt = Cc1cc(O)cc(C)c1C[C@H](N)C(=O)O; Tic = O=C(O)[C@@H]1Cc2ccccc2CN1; Aib = CC(C)(N)C(=O)O; NHBn = c1ccc(CN*)cc1

System in the first series: not given
Test: not given
The following applies: in water; cited from earlier work.
Regarding `CCCCCCCCCCCCCCO[C@@H]1O[C@H](CO)[C@@H](O[C@@H]2O[C@@H](CO)[C@H](O)[C@@H](O)[C@@H]2O)[C@H](O)[C@H]1O` (stereo in doubt) [Tetradecyl maltoside], the CMC is 0.01 mM.

As to `CCCCCCCCCCCCCO[C@@H]1O[C@H](CO)[C@@H](OC2OC(CO)C(O)C(O)C2O)[C@H](O)[C@H]1O` (stereo in doubt) [Tridecyl maltoside], the CMC is 0.03 mM.

For `CCCCCCCCCCO[C@@H]1O[C@H](CO)[C@@H](O[C@H]2O[C@H](CO)[C@@H](O)[C@H](O)[C@H]2O)[C@H](O)[C@H]1O` [Decyl maltoside], the CMC is recorded as 1.8 mM.

As for `CCCCCCCCCCCCO[C@@H]1O[C@H](CO)[C@@H](O[C@H]2O[C@H](CO)[C@@H](O)[C@H](O)[C@H]2O)[C@H](O)[C@H]1O` [Dodecyl-β-D-maltoside], the CMC was 0.17 mM.

As for `CCCCCCCCO[C@@H]1O[C@H](CO)[C@@H](O[C@H]2O[C@H](CO)[C@@H](O)[C@H](O)[C@H]2O)[C@H](O)[C@H]1O` [Octyl maltoside], the CMC was 19.5 mM.

As to Sucrose dodecanoate, the CMC is 0.3 mM.

The target in a further series is T1, mu opioid receptor (Homo sapiens, UniProt P35372).
T1 construct: Cerep SA (contract research organization)
T1 sequence (P35372 whole entry): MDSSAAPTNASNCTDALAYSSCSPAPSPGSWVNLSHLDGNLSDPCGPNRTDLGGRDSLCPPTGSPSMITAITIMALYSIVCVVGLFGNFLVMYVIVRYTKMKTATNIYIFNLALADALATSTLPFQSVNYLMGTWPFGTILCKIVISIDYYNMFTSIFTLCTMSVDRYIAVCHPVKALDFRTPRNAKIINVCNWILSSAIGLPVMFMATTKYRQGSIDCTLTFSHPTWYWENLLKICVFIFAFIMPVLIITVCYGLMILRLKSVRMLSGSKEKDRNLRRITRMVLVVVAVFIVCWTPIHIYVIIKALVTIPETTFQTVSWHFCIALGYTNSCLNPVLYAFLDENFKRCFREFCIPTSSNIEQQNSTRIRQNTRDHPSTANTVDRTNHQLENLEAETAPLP
In words: mu opioid receptor cellular assay (MOP, agonist and antagonist mode), cAMP readout, Cerep. In kind it is cell-based. Conditions: MOP agonist mode and DOP antagonist mode. How it is done:
Compounds were weighed precisely in an amount of approximately 2 mg and assayed in standard cellular assays by the contract research organization Cerep, Inc. (Pullman, Wash.) as executed at their subsidiary, Cerep SA (Le Bois l'Eveque, France). The readout is the amount of cAMP generated in the cells treated with the test compounds, in either agonist or antagonist mode. The assays used were the mu opioid receptor cellular assay (MOP in agonist and antagonist mode), the delta2 opioid receptor cellular assay (DOP in agonist and antagonist mode) and the kappa opioid receptor cellular assay (KOP in agonist and antagonist mode). The assays used are described in Wang, J. B., et al. (1994) FEBS Lett 338: 217-222, Law, P. Y. and Loh, H. H. (1993) Mol Pharmacol 43: 684-693, and Avidor-Reiss, T., et al. (1995) FEBS Lett 361: 70-74. The stimulant for the cells in the DOR antagonist assay was 3×10E-8M DPDPE, a well-accepted DOR literature standard.
With `CCCCCCCCO[C@@H]1O[C@H](C(=O)NCCCC[C@H](NC(=O)[C@H](Cc2ccccc2)NC(=O)[C@@H]2Cc3ccccc3CN2C(=O)[C@@H](N)Cc2c(C)cc(O)cc2C)C(N)=O)[C@@H](O)[C@H](O)[C@H]1O` [EU-A180, Dmt-Tic-Phe-Lys(C8-glucuronyl)-NH2] (H-[Dmt][Tic]FK(GlcA(β1-O-octyl))-NH2), the Characterization result is recorded as “Pure MOP Ag; pure DOP antag”.

Consider `CO[C@@H]1O[C@H](C(=O)NCCCC[C@H](NC(=O)[C@H](Cc2ccccc2)NC(=O)[C@H](Cc2ccccc2)NC(=O)[C@@H]2Cc3ccccc3CN2C(=O)[C@@H](N)Cc2c(C)cc(O)cc2C)C(N)=O)[C@@H](O)[C@H](O)[C@H]1O` [EU-A189, 2′,6′-dimethyl-L-tyrosyl-L-1,2,3,4-tetrahydroisoquinoline-3-carbonyl-L-phenylalanyl-L-phenylalanys-Nε-(1′-methyl β-D-glucuronyl)-L-lysyl-amide], for which the Characterization result is reported as “Pure MOP Ag; pure DOP antag”.

For `CO[C@@H]1O[C@H](C(=O)NCCCC[C@H](NC(=O)[C@H](Cc2ccccc2)NC(=O)[C@@H]2Cc3ccccc3CN2C(=O)[C@@H](N)Cc2c(C)cc(O)cc2C)C(=O)NC(C)(C)C(N)=O)[C@@H](O)[C@H](O)[C@H]1O` [EU-A600, Dmt-Tic-Phe-Lys(C1-glucuronyl)-Aib-NH2] (H-[Dmt][Tic]FK(βGlcA(1-OMe))[Aib]-NH2), the Characterization result was “Pure MOP Ag; pure DOP antag”.

Take `CO[C@@H]1O[C@H](C(=O)NCCCC[C@H](NC(=O)[C@H](Cc2ccccc2)NC(=O)[C@@H]2Cc3ccccc3CN2C(=O)[C@@H](N)Cc2c(C)cc(O)cc2C)C(=O)NCc2ccccc2)[C@@H](O)[C@H](O)[C@H]1O` [EU-A620, Dmt-Tic-Phe-Lys(C1-glucuronyl)-NHCH2Ph] (H-[Dmt][Tic]FK(βGlcA(1-OMe))-NHBn): the Characterization entry is “Pure MOP Ag; pure DOP antag”.

On to `CO[C@@H]1O[C@H](C(=O)NCCCC[C@@H](NC(=O)[C@H](Cc2ccccc2)NC(=O)[C@@H]2Cc3ccccc3CN2C(=O)[C@@H](N)Cc2c(C)cc(O)cc2C)C(=O)NCc2ccccc2)[C@@H](O)[C@H](O)[C@H]1O` [EU-A639, Dmt-Tic-Phe-D-Lys(C1-glucuronyl)-NHCH2Ph] (H-[Dmt][Tic]F[dK](βGlcA(1-OMe))-NHBn; N-terminus assumed), for which the Characterization entry is “Pure MOP Ag; pure DOP antag”.

For the compound “Dmt-Tic-Phe-D-Lys(C1-glucuronyl)-Aib-NH2 [EU-A615]”, the Characterization result was “Pure MOP Ag; pure DOP antag”.

For the compound “Dmt-Tic-Phe-Phe-Lys(C12-glucuronyl)-NH2 [EU-A190]”, the Characterization result is “Pure MOP Ag; pure DOP antag”.

Staying with this series, now noted: MOP agonist/antagonist modes.
As to `CO[C@@H]1O[C@H](C(=O)NCCCC[C@H](NC(=O)[C@H](Cc2c(C)cc(C)cc2C)NC(=O)[C@@H]2CCCN2C(=O)[C@@H](N)Cc2c(C)cc(O)cc2C)C(N)=O)[C@@H](O)[C@H](O)[C@H]1O` [EU-A101, Dmt-Pro-Tmp-Lys(C1-glucuronyl)-NH2] (H-[Dmt]P[Phe(2,4,6-Me3)]K(βGlcA(1-OMe))-NH2; N-terminus assumed), the Characterization entry is on record as “pure agonist”.

Turning to `CCCCCCCCO[C@@H]1O[C@H](C(=O)NCCCC[C@H](NC(=O)[C@H](Cc2c(C)cc(C)cc2C)NC(=O)[C@@H]2CCCN2C(=O)[C@@H](N)Cc2c(C)cc(O)cc2C)C(N)=O)[C@@H](O)[C@H](O)[C@H]1O` [EU-A102, 2′,6′-dimethyl-L-tyrosyl-prolyl-2′,4′,6′-trimethyl-L-phenylalanyl-Nε-(1′-octyl β-D-glucuronyl)-L-lysine amide] (H-[Dmt]P[Phe(2,4,6-Me3)]K(GlcA(β1-O-octyl))-NH2), the Characterization entry is listed as “partial agonist”.

Regarding `CCCCCCCCCCCCO[C@@H]1O[C@H](C(=O)NCCCC[C@H](NC(=O)[C@H](Cc2c(C)cc(C)cc2C)NC(=O)[C@@H]2CCCN2C(=O)[C@@H](N)Cc2c(C)cc(O)cc2C)C(N)=O)[C@@H](O)[C@H](O)[C@H]1O` [EU-A103, Dmt-Pro-Tmp-Lys(C12-glucuronyl)-NH2] (H-[Dmt]P[Phe(2,4,6-Me3)]K(GlcA(β-D,1-O-dodecyl))-NH2; N-terminus assumed), the Characterization result was “pure antagonist”.

Take `CO[C@@H]1O[C@H](C(=O)NCCCC[C@@H](NC(=O)[C@@H](N)Cc2c(C)cc(O)cc2C)C(=O)N[C@@H](Cc2c(C)cc(C)cc2C)C(=O)N[C@@H](Cc2ccccc2)C(N)=O)[C@@H](O)[C@H](O)[C@H]1O` [EU-A107, Dmt-D-Lys(C1-glucuronyl)-Tmp-Phe-NH2] (H-[Dmt][dK](βGlcA(1-OMe))[Phe(2,4,6-Me3)]F-NH2; N-terminus assumed): the Characterization entry was “Agonist”.

System in a further series: not listed separately
As to the kind of experiment: blood PO4 and Ca levels in rats after a single sc injection. The following applies: rat, sc, 80 (PTH, EU-232) or 320 (EU-232), all time points. The series is classed as in vivo, rat. An excerpt: Following the method of Frolik, C.
As for `CC[C@H](C)[C@H](NC(=O)[C@H](CCC(=O)O)NC(=O)[C@H](CO)NC(=O)[C@@H](NC(=O)[C@@H](N)CO)C(C)C)C(=O)N[C@@H](CCC(N)=O)C(=O)N[C@@H](CC(C)C)C(=O)N[C@@H](CCSC)C(=O)N[C@@H](Cc1cnc[nH]1)C(=O)N[C@@H](CC(N)=O)C(=O)N[C@@H](CC(C)C)C(=O)NCC(=O)N[C@@H](CCCCN)C(=O)N[C@@H](Cc1cnc[nH]1)C(=O)N[C@@H](CC(C)C)C(=O)N[C@@H](CC(N)=O)C(=O)N[C@@H](CO)C(=O)N[C@@H](CCSC)C(=O)N[C@@H](CCC(=O)O)C(=O)N[C@@H](CCCN=C(N)N)C(=O)N[C@H](C(=O)N[C@@H](CCC(=O)O)C(=O)N[C@@H](Cc1c[nH]c2ccccc12)C(=O)N[C@@H](CC(C)C)C(=O)N[C@@H](CCCN=C(N)N)C(=O)N[C@@H](CCCCN)C(=O)N[C@@H](CCCCN)C(=O)N[C@@H](CC(C)C)C(=O)N[C@@H](CCC(N)=O)C(=O)N[C@@H](CC(=O)O)C(=O)N[C@H](C(=O)N[C@@H](Cc1cnc[nH]1)C(=O)N[C@@H](CC(N)=O)C(=O)N[C@@H](Cc1ccccc1)C(=O)O)C(C)C)C(C)C` [PTH, reference compound], the “blood calcium levels versus control (saline/vehicle)” value was “No groups were statistically significantly different from control”.

Still in this series, the particulars now being: rat, single sc injection, 80 mcg; PO4 did not further diminish after 1 hour.
Take `CC[C@H](C)[C@H](NC(=O)[C@H](CCC(=O)O)NC(=O)[C@H](CO)NC(=O)[C@@H](NC(=O)[C@@H](N)CO)C(C)C)C(=O)N[C@@H](CCC(N)=O)C(=O)N[C@@H](CC(C)C)C(=O)N[C@@H](CCSC)C(=O)N[C@@H](Cc1cnc[nH]1)C(=O)N[C@@H](CC(N)=O)C(=O)N[C@@H](CC(C)C)C(=O)NCC(=O)N[C@@H](CCCCN)C(=O)N[C@@H](Cc1cnc[nH]1)C(=O)N[C@@H](CC(C)C)C(=O)N[C@@H](CC(N)=O)C(=O)N[C@@H](CO)C(=O)N[C@@H](CCSC)C(=O)N[C@@H](CCC(=O)O)C(=O)N[C@@H](CCCN=C(N)N)C(=O)N[C@H](C(=O)N[C@@H](CCC(=O)O)C(=O)N[C@@H](Cc1c[nH]c2ccccc12)C(=O)N[C@@H](CC(C)C)C(=O)N[C@@H](CCCN=C(N)N)C(=O)N[C@@H](CCCCN)C(=O)N[C@@H](CCCCN)C(=O)N[C@@H](CC(C)C)C(=O)N[C@@H](CCC(N)=O)C(=O)N[C@@H](CC(=O)O)C(=O)N[C@H](C(=O)N[C@@H](Cc1cnc[nH]1)C(=O)N[C@@H](CC(N)=O)C(=O)N[C@@H](Cc1ccccc1)C(=O)O)C(C)C)C(C)C` [PTH, reference compound]: the “blood PO4 levels, 80 mcg groups” value is “transient but not statistically significant decrease”.

These data come from patent publication US10420844B2, “Peptide pharmaceuticals” (Mederis Diabetes LLC, priority 2011, dated 2019).
